The source of these data is patent US20050245520A1, “2-Phenylpyridin-4-yl derivatives as alk5 inhibitors” (priority 2002, published 2005).

Usually melting point stands for the temperature of the solid-liquid transition. Molecule `Cc1cccc(-c2n[nH]cc2-c2ccnc(-c3ccc(OCc4cn(C)cn4)cc3)c2)n1` [Example 1, 2-{4-[(1-methyl-1H-imidazol-4-yl)methoxy]phenyl}-4-[3-(6-methylpyridin-2-yl)-1H-pyrazol-4-yl]pyridine] registered a melting point of 191 °C.

`CCS(=O)(=O)c1ccc(-c2cc(-c3c[nH]nc3-c3cccc(C)n3)ccn2)cc1` [Example 2, 2-[4-(Ethylsulfonyl)phenyl]-4-[3-(6-methylpyridin-2-yl)-1H-pyrazol-4-yl]pyridine] had a melting point of 244 °C.

The molecule `Cc1cccc(-c2n[nH]cc2-c2ccnc(-c3ccc(C#N)cc3)c2)n1` [Example 3] came in with a melting point of 198 °C.

In turn, `Cc1cccc(-c2n[nH]cc2-c2ccnc(-c3ccc(OC(F)(F)F)cc3)c2)n1` [Example 4] came in with a melting point of 131 °C.

In the case of `Cc1cccc(-c2n[nH]cc2-c2ccnc(-c3ccc(Cl)cc3)c2)n1` [Example 5], the melting point stood at 190 °C.

Regarding `Cc1cccc(-c2n[nH]cc2-c2ccnc(-c3ccc(S(C)(=O)=O)cc3)c2)n1` [Example 7], the melting point fell in the range of 232 to 234 °C.

Turning to `Cc1cccc(-c2n[nH]cc2-c2ccnc(-c3ccc(C(=O)NC4CCOCC4)cc3)c2)n1` [Example 14, 4-{4-[3-(6-methylpyridin-2-yl)-1H-pyrazol-4-yl]pyridin-2-yl}-N-(tetrahydro-2H-pyran-4-yl)benzamide], the melting point turned out to be 148 °C.

Molecule `Cc1cccc(-c2cn[nH]c2-c2ccnc(-c3ccc(C(=O)NC4CCOCC4)cc3)c2)n1` [Example 18, 3-[2-(4-((tetrahydropyran-4-yl)aminocarbonyl)phenyl)pyridin-yl]-4-[6-methylpyridin-2-yl]-1H-pyrazole] returned a melting point of 170 °C.

With `Cc1cccc(-c2c[nH]nc2-c2ccnc(-c3ccc(N4CCOCC4)cc3)c2)n1` [Example 20], the melting point was found to be 210 °C.

Molecule `Cc1cccc(-c2c[nH]nc2-c2ccnc(-c3ccc(CN4CCOCC4)cc3)c2)n1` [Example 21] showed a melting point of 128 °C.

`COc1ccc(-c2cc(-c3c(-c4ccccn4)nc4ccccn34)ccn2)cc1` [Example 34, 3-[2-(4-methoxyphenyl)-pyridin-4-yl]-2-pyridin-2-yl-imidazo[1,2-a]pyridine] yielded a melting point of 222 °C.

Molecule `Cc1cccc(-c2nc3ccccn3c2-c2ccnc(-c3ccc(NS(=O)(=O)C(F)(F)F)cc3)c2)n1` [Example 53, 2-(6-methyl-pyridin-2-yl)-3-{2-[4-(trifluoromethylsulfonylamino)phenyl]-pyridin-4-yl}-imidazo[1,2-a]pyridine] showed a melting point of 135 °C.

As for `c1ccc(-c2nc3ccccn3c2-c2ccnc(-c3ccc(N4CCOCC4)cc3)c2)nc1` [Example 54, 3-[2-(4-(morpholin-4-yl)-phenyl)-pyridin-4-yl]-2-pyridin-2-yl-imidazo[1,2-a]pyridine], the melting point is 145 °C.

`CN1CCN(c2ccc(-c3cc(-c4c(-c5ccccn5)nc5ccccn45)ccn3)cc2)CC1` [Example 55, 3-{2-[4-(4-methylpiperazin-1-yl)-phenyl]-pyridin-4-yl}-2-pyridin-2-yl-imidazo[1,2-a]pyridine] registered a melting point of 150 °C.

In turn, `Cc1cccc(-c2nc3ccccn3c2-c2ccnc(-c3ccc(CN4CCOCC4)cc3)c2)n1` [Example 56, 2-(6-methyl-pyridin-2-yl)-3-[2-(4-(morpholin-4-ylmethyl)phenyl)-pyridin-4-yl]-imidazo[1,2-a]pyridine] displayed a melting point of 156 °C.

With `Cc1cccc(-c2nc3ccccn3c2-c2ccnc(-c3ccc(C(=O)N4CCOCC4)cc3)c2)n1` [Example 66, 2-(6-methyl-pyridin-2-yl)-3-{2-[4-((morpholin-4-yl)carbonyl)phenyl]-pyridin-4-yl}-imidazo[1,2-a]pyridine], the melting point amounted to 110 °C.

`COCCCNC(=O)c1ccc(-c2cc(-c3c(-c4cccc(C)n4)nc4ccccn34)ccn2)cc1` [Example 67, 2-(6-methyl-pyridin-2-yl)-3-{2-[4-((3-methoxypropylamino)carbonyl)phenyl]-pyridin-4-yl}-imidazo[1,2-a]pyridine] gave a melting point of 165 °C.

Take `Cc1ccn2c(-c3ccnc(-c4ccc(OCc5cn(C)cn5)cc4)c3)c(-c3cccc(C)n3)nc2c1` [Example 75, 7-methyl-2-(6-methyl-pyridin-2-yl)-3-{2-[4-((1-methyl-imidazol-4-yl)methyloxy)phenyl]-pyridin-4-yl}-imidazol[1,2-a]pyridine]: the melting point was determined as 217 °C.

For `Cc1cccc(-c2nc3ccccn3c2-c2ccnc(-c3ccc(OCc4cn(C)cn4)cc3)c2)n1` [Example 76, 2-(6-methyl-pyridin-2-yl)-3-{2-[4-((1-methyl-imidazol-4-yl)methyloxy)phenyl]-pyridin-4-yl}-imidazo[1,2-a]pyridine], the melting point came out at 120 °C.

Take `Cc1ccn2c(-c3ccnc(-c4ccc(OCC(N)=O)cc4)c3)c(-c3cccc(C)n3)nc2c1` [Example 77, 7-methyl-2-(6-methyl-pyridin-2-yl)-3-{2-[4(aminocarbonylmethyloxy)phenyl]-pyridin-4-yl}-imidazo[1,2-a]pyridine]: the melting point came to 213 °C.

On to `Cc1cccc(-c2nc3c(C)cccn3c2-c2ccnc(-c3ccc(OCC(N)=O)cc3)c2)n1` [Example 78, 8-methyl-2-(6-methyl-pyridin-2-yl)-3-{2-[4-(aminocarbonylmethyloxyl)phenyl]-pyridin-4-yl}-imidazo[1,2-a]pyridine], for which the melting point came out at 183 °C.

Molecule `Cc1cccc(-c2nc3ccccn3c2-c2ccnc(-c3ccc(N4CCOCC4)cc3)c2)n1` [Example 79, 2-(6-methyl-pyridin-2-yl)-3-{2-[4-(morpholin-4-yl)phenyl]-pyridin-4yl}-imidazo[1,2-a]pyridine] registered a melting point of 190 °C.

For `Cc1ccn2c(-c3ccnc(-c4ccc(N5CCOCC5)cc4)c3)c(-c3cccc(C)n3)nc2c1` [Example 80, 7-methyl-2-(6-methyl-pyridin-2-yl)-3-{2-[4-(morpholin-4-yl)phenyl]-pyridin-4-yl}-imidazo[1,2-a]pyridine], the melting point was 208 °C.

Take `Cc1cccc(-c2[nH]c(C(C)(C)C)nc2-c2ccnc(-c3ccc(C(=O)NC4CCOCC4)cc3)c2)n1` [Example 81]: the melting point was 174 °C.

Regarding `Cc1cccc(-c2[nH]c(C(C)(C)C)nc2-c2ccnc(-c3ccc(CN(C)C)cc3)c2)n1` [Example 101, (4-{4-[2-tert-Butyl-5-(6-methyl-pyridin-2-yl)-1H-imidazol-4-yl]-pyridin-2-yl}-benzyl)-dimethyl-amine], the melting point was 187 °C.

`Cc1cccc(-c2[nH]c(C(C)(C)C)nc2-c2ccnc(-c3ccc(OCC(N)=O)cc3)c2)n1` [Example 107, 2-{4-[4-(2-tert-Butyl-5-{6-methyl}pyridin-2-yl-1H-imidazol-4-yl)-pyridin-2-yl]-phenoxy}-acetamide] yielded a melting point of 210 °C.

In turn, `Cc1cccc(-c2[nH]c(C(C)(C)C)nc2-c2ccnc(-c3ccc(OCCN4CCCC4)cc3)c2)n1` [Example 108, 4-(2-tert-Butyl-5-{6-methyl}-pyridin-2-yl-1H-imidazol-4-yl)-2-[4-(2-pyrrolidin-1-yl-ethoxy)-phenyl]-pyridine] returned a melting point of 168 °C.

Consider `Cn1cnc(COc2ccc(-c3cc(-c4nc(C(C)(C)C)[nH]c4-c4ccccn4)ccn3)cc2)c1` [Example 109, 4-(2-tert-Butyl-5-pyridin-2-yl-1H-imidazol-4-yl)-2-[4-(1-methyl-1H-imidazol4-ylmethoxy)-phenyl]-pyridine], for which the melting point is 156 °C.

Molecule `Nc1nc(-c2ccccn2)c(-c2ccnc(-c3ccc(N4CCOCC4)cc3)c2)s1` [Example 111] returned a melting point of 246 °C.

The molecule `Cc1cccc(-c2sc(N)nc2-c2ccnc(-c3ccc(Cl)cc3)c2)n1` [Example 125] came in with a melting point of 222 °C.

Regarding `Cc1cccc(-c2sc(N)nc2-c2ccnc(-c3ccc(OC(F)(F)F)cc3)c2)n1` [Example 126], the melting point turned out to be 232 °C.

The molecule `CCS(=O)(=O)c1ccc(-c2cc(-c3nc(N)sc3-c3cccc(C)n3)ccn2)cc1` [Example 127] registered a melting point of 219 °C.

For the molecule `Cc1cccc(-c2sc(N)nc2-c2ccnc(-c3ccc(CN4CCOCC4)cc3)c2)n1` [Example 131], the melting point is 236 °C.

Regarding `Cc1cccc(-c2sc(N)nc2-c2ccnc(-c3ccc(N4CCOCC4)cc3)c2)n1` [Example 132], the melting point was 246 °C.

In turn, `Cc1cccc(-c2sc(N)nc2-c2ccnc(-c3ccc(OCC(N)=O)cc3)c2)n1` [Example 134] returned a melting point of 191 °C.

Turning to `Cc1cccc(-c2sc(N)nc2-c2ccnc(-c3ccc(CN(C)C)cc3)c2)n1` [Example 137], the melting point turned out to be 210 °C.
